Columns and labels:
rats [1] = test: AAPA task after MK-801 (animal model of schizophrenia); type: in vivo, rat; conditions: for locomotion activity in AAPA (total distance): vs control
Protocol: The effect of compound from example 9 application on changes in behavior and locomotor activity in animal model of schizophrenia was monitored. Schizophrenia-like behavior in rats was induced by dizocilpine (MK-801) administration. […] was administered in doses of 0.001 mg/kg, 0.01 mg/kg, 0.1 mg/kg and 10 mg/kg. Spatial orientation and cognitive function of rats were assessed in active allothetic place avoidance task (AAPA).
Schizophrenia-like behaviour in rats was induced by administration of dizocilpine (MK-801). Spatial navigation and cognitive functions of rats were assessed in active alothetic place avoidance task (AAPA). In addition, this task allows simultaneous assessment of potential differences in locomotory activity. The AAPA task requires rats moving on a continuously rotating (1 rpm) smooth metallic circular arena to avoid an unmarked place defined in the coordinates of the experimental room. The avoidance is reinforced by a mild electric foot-shock administered automatically upon entering the to-be avoided place.
The AAPA task is highly dependent on hippocampal function, since even a unilateral inactivation of thstructure hippocampus impairs this behaviour. Animals have to actively and repeatedly move away from the to-be-avoided place otherwise they are brought there by the arena rotation. Each AAPA session lasts 20 min and 4 sessions were conducted over 4 consecutive days.
Rats received 0.1 mg/kg MK-801 alone or co-administered with the compound from example 9 (dissolved in β-cyclodextrine) in doses of 0.001 mg/kg, 0.01 mg/kg, 0.1 mg/kg, and 10 mg/kg. Control animals received saline. […] It is for a common animal model of schizophrenia-like behaviour.
The results are shown in FIGS. 21-23, where means and standard errors of the mean (S.E.M.) are represented for individual sessions. Statistic analysis was for better clarity stated always for the last session, when an asymptotic level of performance in control animals was reached.

C6 glioma cell line = test: Growth of glioma cells in culture; type: cell-based; conditions: 0.1 and 1 μg in 50 ml β-cyclodextrine solution, 3 div + 6 days
Protocol: The effect of compound from the example 9 (the model molecule) on growth of glioma cells was studied on C6 glioma cell line (ATTC, Rockville). The model molecule was tested at doses of 0.1 and 1 μg dissolved in 50 ml of β-cyclodextrine solution. Parallel control groups were administered by cholesterol at doses of 0.1 and 1 μg dissolved in 50 ml of β-cyclodextrine solution. The last group included in the experiment was left intact without any application.
The cells were cultivated in vitro for 3 days (div). Afterwards tested molecule was applied and the cell culture was studied for additional 6 days. Olympus microscope with phase contrast and 200× magnification was used for the cell monitoring.

rats [2] = test: Elevated plus maze (anxiety); type: in vivo, rat
Protocol: The effect of i.p. administration of compound from example 9 in doses of 0.001, 0.01, and 10 mg/kg on behaviour in elevated plus maze was evaluated. The number of entrances into open arms and the total time spent in open arms were assessed.
The apparatus consisted of two opposite open arms (45 cm×10 cm) crossed at right angles with two opposite arms of the same size enclosed by walls 40 cm high, except for the central part where the arms crossed. The whole apparatus was elevated 50 cm above the floor.

Long-Evans rats = test: AAPA task after bilateral NMDA excitotoxic lesion of the hippocampus; type: in vivo, rat
Protocol: Neuroprotective action of 3α-substituted derivatives of pregnanolone was tested in the well-established model represented by excitotoxic bilateral lesion of the hippocampus with NMDA, an agonist of NMDA receptors. This model represents a widely-accepted paradigm of excitotoxicity induced experimental disruption of memory functions in laboratory rodents. The model also mimics into some extent the excessive action of glutamate on cells in the hippocampus, which contains abundance of NMDA receptors. The effect of lesions and possible neuroprotective action can be observed at various intervals after treatment both on the histological and behavioral level, provided that a suitable hippocampus-dependent memory task is available. In our studies, we have used a hippocampus-dependent spatial task AAPA (see above), which requires spatial and executive abilities and involves so-called “cognitive coordination” (Wesierska et al., 2005). Again, all manipulations with animals conformed to current legislation and Institutional recommendations on animal care and were approved by ethical-care committee.
In this phase of experiment, we have studied the effect of compound from Example 9 (and relation of this effect to dose) on NMDA excitotoxic hippocampal lesion after various intervals from lesioning. 150 adult male Long-Evans rats (250-350 g) were used in the study. Rats were housed in transparent plastic cages (25×25×40 cm) in air-conditioned animal room with 12/12 h dark/light rhythmicity. All rats had free access to food and water throughout the study.
During surgery, animals were deeply anesthetized by isoflurane inhalation anesthesia (3.5%, driven by air). Initial sedation was pursued in initiation chamber filled with diethyl ether vapor. During whole anesthesia, vital functions of animals were precisely monitored by the person pursuing surgery. After fixation in the stereotaxic apparatus (Kopf Instruments) the skull was exposed and small trephine openings were drilled with micro driller and subsequently, 1 ul of NMDA solution ([…] NMDA in saline buffered with calcium dihydrogenphosphate to pH=7.2) was microinjected into both dorsal hippocampi. The stereotaxic coordinates (AP=4; L=±2.5; DV=4) were measured from a rigorous atlas (Paxinos and Watson, 2005) and later verified from histological examination. Rats were then placed into soft post-surgery boxes. […] Doses of compound from Example 9 were: 0.01 mg/kg, 0.1 mg/kg and 10 mg/kg of b.w. In control groups and lesion-only groups, we applied only saline and NMDA, respectively. Solution of compound from Example 9 (0.01 mg/2 ml, 0.1 mg/2 ml or 10 mg/2 ml dissolved in cyclodextrin) was applied s.c. at a volume of 2 ml/kg.
Prior to behavioral observations, animals were left for 7 days to recover after surgery. After this recovery period, two days (each consisting of two sessions) of AAPA training were conducted. Each rat was initially placed onto rotating (1 rpm) circular arena containing a to-be-avoided sector (60°), fixed in the coordinate frame of the room (Stuchlik et al., 2008). Upon entrance into the prohibited sector, rat was punished by a mild electric footshock (˜0.3 mA] delivered from low-impedance subcutaneous wire to contact between rats paws and grounded floor (with highest voltage drop in rats feet). Rats wore a latex harness on their backs, holding an infrared light-emitting diode (LED), which was sampled by TV camera mounted above the arena and connected to a computer digitizing system (iTrack, Biosignal Group, USA). The shock sector is not directly perceptible for animals and its location can be determined solely by its relationships with distal room landmarks. […] The task is highly dependent upon hippocampus, with unilateral inactivation of this structure leading to avoidance deficit (Cimadevilla et al., 2001). This was the reason why we have selected this task for NMDA-induced impairment and detection of putative neuroprotective action of our compound (Example 9). […]

[3] = 10 mg/kg s.c., 30 min prior to and after lesion, or 120 min after lesion

With `CC(=O)[C@H]1CC[C@H]2[C@@H]3CC[C@@H]4C[C@H](OC(=O)[C@@H](N)CCC(=O)O)CC[C@]4(C)[C@H]3CC[C@]12C` [Example 9, 20-Oxo-5β-pregnan-3α-yl L-glutamyl 1-ester] the “MK-801-induced deficit in number of errors in AAPA” value (rats [1]; Example 9 0.001, 0.01, 0.1 and 10 mg/kg + MK-801 0.1 mg/kg) was “reversed this deficits at all doses”, the “locomotion activity in AAPA (total distance)” value (rats [1]; Example 9 0.001, 0.01 and 0.1 mg/kg + MK-801 0.1 mg/kg) was “showed neither increase nor decrease of locomotion activity” and the “MK-801-induced deficit in maximum time of avoidance in AAPA” value (rats [1]; Example 9 0.001, 0.01 and 10 mg/kg + MK-801 0.1 mg/kg) was “reversed this deficit”. For the same compound, the “locomotion activity in AAPA (total distance)” value (rats [1]; Example 9 10 mg/kg + MK-801 0.1 mg/kg) was “increased locomotor activity compared to controls”, the “effect on growth of glioma cells” value (C6 glioma cell line) was “overall slight cytostatic and pro-differentiation effect on glioma cells” and the “anxiolytic effect in elevated plus maze” value (rats [2]; 0.001, 0.01 and 10 mg/kg i.p.) was “pronounced dose-dependent anxiolytic effect”. For the same compound, the “number of entries into open arms” value (rats [2]; 10 mg/kg i.p., p<0.05 vs control) was “significant increase of number of entries into open arms”, the “number of entrances in AAPA after NMDA lesion” value (from here on “number of entrances in AAPA”) (Long-Evans rats; 0.01 mg/kg s.c., 30 min after lesion) was “improved the subsequent performance in the AAPA task” and the “maximum time avoided in AAPA after NMDA lesion” value (shortened to “maximum time avoided in AAPA”) (Long-Evans rats; 0.01 mg/kg s.c., 30 min after lesion, or 30 min prior to and after lesion) was “had beneficial effect in lesioned animals”. For the same compound, the “number of entrances in AAPA” value (Long-Evans rats; 0.01 mg/kg s.c., 30 min prior to and after lesion) was “the alleviation was not significant”, the “number of entrances in AAPA” value (Long-Evans rats; 0.01 mg/kg s.c., longer intervals from the lesion) was “exerted no effect after longer intervals from the lesion” and the “maximum time avoided in AAPA” value (Long-Evans rats; 0.1 mg/kg s.c.) was “tended to alleviate the performance of rats compared to lesioned animals without treatment”. For the same compound, the “number of entrances in AAPA” value (Long-Evans rats; 0.1 mg/kg s.c., 30 min after lesion) was “non-significantly improved the behavioral performance”, the “maximum time avoided in AAPA” value (Long-Evans rats; [3]) was “caused a significant improvement of rat performance” and the “number of entrances in AAPA” value (Long-Evans rats; [3]) was “significant protective effect against hippocampal lesion”. The “number of entrances in AAPA” value (Long-Evans rats; 10 mg/kg s.c., other delays) was “No improvement was seen at other delays”.

Source: patent publication US8575376B2, “Steroide anionic compounds, method of their production, usage and pharmaceutical preparation involving them” (Ustav Organicke Chemie A Biochemie Akademie Ved Ceske …, priority 2009, dated 2013)
